Assay results reported in patent publication US7139665B2, “Computational method for designing enzymes for incorporation of non natural amino acids into proteins” (California Institute of Technology, priority 2002, dated 2006).
“Also recorded” adds a separate entry of the source.

Columns and labels:
ePheRS = target: T1, ePheRS (Escherichia coli, UniProt P08312); test: In vivo translational activity: mDHFR expression in Phe-auxotrophic E. coli AF-IQ[pQE15] (no mutant synthetase); assay type: cell-based; conditions: phenylalanine-free minimal media supplemented with 2 (250 mg/L), 4 hr post-induction, versus background (-phe)
T1 construct: endogenous in cells; host or cells: E. coli AF-IQ[pQE15]; (Phe-auxotrophic BL21(DE3) derivative)
T1 sequence (P07395 whole entry): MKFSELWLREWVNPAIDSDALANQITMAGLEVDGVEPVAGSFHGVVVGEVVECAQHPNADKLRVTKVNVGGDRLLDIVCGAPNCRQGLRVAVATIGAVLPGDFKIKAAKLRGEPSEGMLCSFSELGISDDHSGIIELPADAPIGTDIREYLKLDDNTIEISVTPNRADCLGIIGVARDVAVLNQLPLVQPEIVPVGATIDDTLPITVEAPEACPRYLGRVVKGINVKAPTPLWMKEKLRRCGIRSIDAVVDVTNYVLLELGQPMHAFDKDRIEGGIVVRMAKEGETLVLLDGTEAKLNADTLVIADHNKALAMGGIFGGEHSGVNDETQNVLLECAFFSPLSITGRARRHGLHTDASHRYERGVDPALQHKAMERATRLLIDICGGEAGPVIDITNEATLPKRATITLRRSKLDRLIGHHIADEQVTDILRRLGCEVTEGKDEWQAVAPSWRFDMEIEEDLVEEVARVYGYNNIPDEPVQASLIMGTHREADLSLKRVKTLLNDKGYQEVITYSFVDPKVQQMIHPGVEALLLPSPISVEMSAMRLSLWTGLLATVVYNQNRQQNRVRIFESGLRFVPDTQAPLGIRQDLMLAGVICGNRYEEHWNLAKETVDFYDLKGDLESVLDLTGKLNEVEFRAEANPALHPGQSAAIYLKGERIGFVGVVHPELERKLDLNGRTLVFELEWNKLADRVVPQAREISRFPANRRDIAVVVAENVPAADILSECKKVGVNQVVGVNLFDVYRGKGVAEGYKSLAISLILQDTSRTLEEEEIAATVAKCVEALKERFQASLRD
T1 sequence (P08312 whole entry): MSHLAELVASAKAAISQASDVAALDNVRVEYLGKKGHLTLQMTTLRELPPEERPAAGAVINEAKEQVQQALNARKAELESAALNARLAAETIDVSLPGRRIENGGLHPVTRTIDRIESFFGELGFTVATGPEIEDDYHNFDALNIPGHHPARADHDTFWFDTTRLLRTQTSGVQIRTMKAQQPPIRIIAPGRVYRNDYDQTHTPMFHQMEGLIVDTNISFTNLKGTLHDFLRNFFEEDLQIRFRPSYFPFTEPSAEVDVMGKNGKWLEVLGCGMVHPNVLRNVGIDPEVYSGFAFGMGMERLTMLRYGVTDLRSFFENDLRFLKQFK
Procedure: (§1) AF-IQ, a phenylalanine auxotrophic E. coli strain carrying the repressor plasmid pLysS-IQ,^4 was transformed with pQE15, pQE-FS*, or pQE-FS** to generate expression systems AF-IQ[pQE15], AF-IQ[pQE-FS*], and AF-IQ[pQE-FS**], respectively. The capacity of 2 to support protein synthesis in each expression system was determined by induction of mDHFR expression in phenylalanine-free minimal media supplemented with 2.
(§2) The AF strain was transformed with repressor plasmid pLysS-IQ and with pQE15, pQE-FS* or pQE-FS** to generate expression strains AF-IQ[pQE15], AF-IQ[pQE-FS*] or AF-IQ[pQE-FS**], respectively.
Small scale (10 ml) cultures were used to investigate the in vivo translational activity of 2 (p-AcetylPhe). M9 minimal medium (50 ml) supplemented with 0.2% glucose, 1 mg/L thiamine, 1 mM MgSO4, 1 mM CaCl2, 19 amino acids (at 20 mg/L), antibiotics (ampicillin 200 mg/L, chloramphenicol 35 mg/L) and phenylalanine (at 20 mg/L) was inoculated with 1 ml of an overnight culture of the expression strain. When the optical density at 600 nm reached 0.8–1.0, a medium shift was performed. […] Cells were cultured for 4 hours post-induction and protein expression was monitored by SDS polyacrylamide gel electrophoresis (PAGE, 12%), using a normalized OD600 of 0.2 per sample.

ePheRS* [1] = target: T2, ePheRS* (Escherichia coli, UniProt P08312, A294G); test: In vivo translational activity: mDHFR expression in E. coli AF-IQ[pQE-FS*] over-expressing ePheRS* (Ala294Gly); assay type: cell-based; conditions: ePheRS* over-expressed, Phe-depleted media supplemented with 2 (250 mg/L), versus background (-phe)
T2 construct: expressed in transfected cells; host or cells: E. coli AF-IQ[pQE-FS*]
T2 sequence (P08312 whole entry A294G): as the sequence (P08312 whole entry) above, with A294G counted along it
T2 sequence (P07395 whole entry, further chain): as the sequence (P07395 whole entry) above
Procedure: as §1
A phenylalanine auxotrophic derivative of E. coli strain BL21(DE3), designed AF (HsdS gal (χcIts857 ind I Dam5 lacUV5-T7 gene 1) pheA) and constructed in our laboratory, was used as the expression host. The AF strain was transformed with repressor plasmid pLysS-IQ and with pQE15, pQE-FS* or pQE-FS** to generate expression strains AF-IQ[pQE15], AF-IQ[pQE-FS*] or AF-IQ[pQE-FS**], respectively.
Small scale (10 ml) cultures were used to investigate the in vivo translational activity of 2 (p-AcetylPhe). M9 minimal medium (50 ml) supplemented with 0.2% glucose, 1 mg/L thiamine, 1 mM MgSO4, 1 mM CaCl2, 19 amino acids (at 20 mg/L), antibiotics (ampicillin 200 mg/L, chloramphenicol 35 mg/L) and phenylalanine (at 20 mg/L) was inoculated with 1 ml of an overnight culture of the expression strain. […] Cells were cultured for 4 hours post-induction and protein expression was monitored by SDS polyacrylamide gel electrophoresis (PAGE, 12%), using a normalized OD600 of 0.2 per sample.

ePheRS** = target: T3, ePheRS** (Escherichia coli, UniProt P08312, A294G/T251G); assay type: cell-based
T3 construct: expressed in transfected cells; host or cells: E. coli AF-IQ[pQE-FS**]
T3 sequence (P08312 whole entry T251G/A294G): as the sequence (P08312 whole entry) above, with T251G, A294G counted along it
T3 sequence (P07395 whole entry, further chain): as the sequence (P07395 whole entry) above
Procedure: The capacity of 2 to support protein synthesis in each expression system was determined by induction of mDHFR expression in phenylalanine-free minimal media supplemented with 2.
as §2
Small scale (10 ml) cultures were used to investigate the in vivo translational activity of 2 (p-AcetylPhe). M9 minimal medium (50 ml) supplemented with 0.2% glucose, 1 mg/L thiamine, 1 mM MgSO4, 1 mM CaCl2, 19 amino acids (at 20 mg/L), antibiotics (ampicillin 200 mg/L, chloramphenicol 35 mg/L) and phenylalanine (at 20 mg/L) was inoculated with 1 ml of an overnight culture of the expression strain. When the optical density at 600 nm reached 0.8–1.0, a medium shift was performed. Cells were sedimented by centrifugation for 15 min at 3,100 g at 4° C., the supernatant was removed and the cell pellets were washed twice with 0.9% NaCl. Cells were resuspended in supplemented M9 medium containing either: (a) 250 mg/L of p-AcetylPhe 2, (b) 20 mg/L phe (1) (positive control), or (c) no phe or analog (negative control). Protein expression was induced 10 min after the medium shift by addition of isopropyl-β-D-thiogalactoside (IPTG) to a final concentration of 1 mM. Cells were cultured for 4 hours post-induction and protein expression was monitored by SDS polyacrylamide gel electrophoresis (PAGE, 12%), using a normalized OD600 of 0.2 per sample.

ePheRS* [2] = target: T2, ePheRS*; conditions: over-expression of ePheRS*; earlier work; cited from earlier work

Compound: CC(=O)c1ccc(C[C@H](N)C(=O)O)cc1 [compound 2, p-acetylphenylalanine]
- protein (mDHFR) expression, SDS-PAGE of whole cell lysates (ePheRS): neither AF-IQ[pQE15] nor AF-IQ[pQE-FS*] exhibits protein expression above background
- protein (mDHFR) expression, SDS-PAGE of whole cell lysates (ePheRS* [1]): did not produce substantial yields of protein; also recorded: neither AF-IQ[pQE15] nor AF-IQ[pQE-FS*] exhibits protein expression above background
- protein (mDHFR) expression, SDS-PAGE of whole cell lysates (ePheRS**; AF-IQ[pQE-FS**], phenylalanine-free minimal media supplemented with 2 (250 mg/L)): high levels of mDHFR expression
- replacement of 1 by 2 in mDHFR (ePheRS**; from MALDI-TOF mass increase of mDHFR-2, mDHFR contains 9 Phe residues): approximately 80%
- misincorporation of canonical amino acids (ePheRS**; media supplemented with 2): no detectable misincorporation

Compound: [N-]=[N+]=Nc1ccc(C[C@H](N)C(=O)O)cc1 [p-azidophenylalanine]
- incorporation into recombinant proteins in E. coli hosts (ePheRS* [2]): efficient incorporation

Compound: N[C@@H](Cc1ccc(Br)cc1)C(=O)O [p-bromophenylalanine]
- incorporation into recombinant proteins in E. coli hosts (ePheRS* [2]): efficient incorporation

Compound: N#Cc1ccc(C[C@H](N)C(=O)O)cc1 [p-cyanophenylalanine]
- incorporation into recombinant proteins in E. coli hosts (ePheRS* [2]): efficient incorporation

Compound: C#Cc1ccc(C[C@H](N)C(=O)O)cc1 [p-ethynylphenylalanine]
- incorporation into recombinant proteins in E. coli hosts (ePheRS* [2]): efficient incorporation

Compound: N[C@@H](Cc1ccc(I)cc1)C(=O)O [p-iodophenylalanine]
- incorporation into recombinant proteins in E. coli hosts (ePheRS* [2]): efficient incorporation

Compound: N[C@@H](Cc1c[nH]c2ccccc12)C(=O)O [tryptophan]
- misincorporation into protein by ePheRS** (ePheRS**; phe starvation conditions in the absence of 2): misincorporation

Compound: N[C@@H](Cc1ccc(O)cc1)C(=O)O [tyrosine]
- misincorporation into protein (ePheRS**; under any conditions): not observed misincorporation
